In experiment [1] the target is T1, PAK4 Kinase domain (PAK4 KD) (Homo sapiens, UniProt O96013).
T1 construct: Cloning, expression, and purification of recombinant PAK4 Kinase domain (PAK4 KD); His tag (pET28a(+)/pET24a(+), Ni-NTA purification) (N, cleaved yes); GST (pGST4.5, glutathione column) (N, cleaved yes); made in house; host or cells: E. coli BL21(DE3)
Description: PAK4 kinase domain enzymatic assay (PK/LDH-coupled, Ki). It is filed as biochemical. The conditions noted are these: for Ki: PAK4 Kinase Domain.

The target of experiment [2] is T2, PAK4 kinase activity in whole cells (TR-293-KDG, modified HEK 293) (Homo sapiens, UniProt O96013).
T2 construct: engineered to overexpress both GEF-H1b and the kinase domain (KD) of PAK4; expressed in transfected cells; host or cells: TR-293-KDG (modified HEK 293, Trex system, Invitrogen)
T2 sequence (O96013 321-572 limits assumed): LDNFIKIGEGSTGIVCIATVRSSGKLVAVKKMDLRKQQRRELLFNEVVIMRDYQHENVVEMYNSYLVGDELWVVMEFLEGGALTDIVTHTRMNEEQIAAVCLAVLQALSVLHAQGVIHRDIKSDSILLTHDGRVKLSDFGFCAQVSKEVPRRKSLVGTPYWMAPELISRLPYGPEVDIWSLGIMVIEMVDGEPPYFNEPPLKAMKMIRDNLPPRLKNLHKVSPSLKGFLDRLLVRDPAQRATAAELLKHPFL
Put plainly: PAK4 cellular assay: sandwich ELISA of PAK4-dependent phosphorylation of GEF-H1b in TR-293-KDG cells. Type of experiment: cell-based. The conditions noted are these: 3-hour exposure.

From patent US7884117B2, “Carbonylamino pyrrolopyrazoles, potent kinase inhibitors” (Pfizer Inc., priority 2005, dated 2011) come the findings set out here.

T1 sequence (O96013 321-572 limits assumed): as above

For the compound “3-[(2,4-difluorobenzoyl)amino]-N-[(1S)-2-(dimethylamino)-1-phenylethyl]-6,6-dimethyl-4,6-dihydropyrrolo[3,4-c]pyrazole-5(1H)-carbox- amide [Example 49]”, in experiment [1], the Ki turned out to be 193 nM. Also, in experiment [2], the EC50 was found to be 90.8 nM.
The matching figures for `CC1(C)c2[nH]nc(NC(=O)c3cccs3)c2CN1C(=O)N[C@H]1C[C@@H]1c1ccccc1` (relative stereo) [Example 98, 6,6-dimethyl-N-[trans-2-phenylcyclopropyl]-3-[(2-thienylcarbonyl)amino]-4,6-dihydropyrrolo[3,4-c]pyrazole-5(1H)-carboxamide]: 19.5 nM and 1080 nM.
The matching figures for `CC1(C)c2[nH]nc(NC(=O)[C@@H]3C[C@H]3c3ccccc3)c2CN1C(=O)N[C@@H]1C[C@H]1c1ccccc1` (relative stereo) [Example 108, 6,6-dimethyl-N-[trans-2-phenylcyclopropyl]-3-({[trans-2-phenylcyclopropyl]-carbonyl}amino)-4,6-dihydropyrrolo[3,4-c]pyrazole-5(1H)-carboxamide]: 70 nM and 1150 nM.
As for `CN(C)CC(OC(=O)N1Cc2c(n[nH]c2NC(=O)C2CCCO2)C1(C)C)c1cccc(F)c1` (single isomer, unassigned) [Example 83A], the concentration giving a half-maximal response (EC50) in experiment [2] is 560 nM.
Turning to `CN(C)CC(OC(=O)N1Cc2c(n[nH]c2NC(=O)C2CCCO2)C1(C)C)c1cccc(F)c1` (single isomer, unassigned) [Example 83B], affinity in experiment [1] was put at a Ki of 36.2 nM. This compound registered an EC50 in experiment [2] of 5 nM.
The matching figures for `CN(C)CC(OC(=O)N1Cc2c(n[nH]c2NC(=O)C2CCCO2)C1(C)C)c1cccc(F)c1` (single isomer, unassigned) [Example 84A]: 70 nM and 16 nM.
For `CN(C)CC(OC(=O)N1Cc2c(n[nH]c2NC(=O)C2CCCO2)C1(C)C)c1cccc(F)c1` (single isomer, unassigned) [Example 84B], a half-maximal response in experiment [2] (EC50) required 396 nM.
In experiment [1], `CN(C)C[C@@H](OC(=O)N1Cc2c(NC(=O)c3ccccc3F)n[nH]c2C1(C)C)c1ccccc1` [Example 3, (1S)-2-(dimethylamino)-1-phenylethyl 3-[(2-fluorobenzoyl)amino]-6,6-dimethyl-4,6-dihydropyrrolo[3,4-c]pyrazole-5(1H)-carboxylate] came in with a Ki of 42.1 nM. Also, the midpoint of the response in experiment [2], the EC50, lay at 50 nM.
For `CN(C)C[C@@H](OC(=O)N1Cc2c(NC(=O)c3ccc(F)cc3F)n[nH]c2C1(C)C)c1ccccc1` [Example 4, (1S)-2-(dimethylamino)-1-phenylethyl 3-[(2,4-difluorobenzoyl)amino]-6,6-dimethyl-4,6-dihydropyrrolo[3,4-c]pyrazole-5(1H)-carboxylate], the affinity in experiment [1] corresponds to a Ki of 68 nM. For the same compound, the EC50 in experiment [2] was determined as 14.6 nM.
The like results for `CN(C)C[C@@H](OC(=O)N1Cc2c(NC(=O)c3ccc(C(F)(F)F)cc3)n[nH]c2C1(C)C)c1ccccc1` [Example 5] were, in that order, 14.4 nM and 271 nM.
The like results for `CN(C)C[C@@H](OC(=O)N1Cc2c(NC(=O)c3ccccn3)n[nH]c2C1(C)C)c1ccccc1` [Example 6, (1S)-2-(dimethylamino)-1-phenylethyl 6,6-dimethyl-3-[(pyridin-2-ylcarbonyl)amino]-4,6-dihydropyrrolo[3,4-c]pyrazole-5(1H)-carboxylate] were, in that order, 30.9 nM and 27.9 nM.
The like results for `CC(=O)Nc1n[nH]c2c1CN(C(=O)O[C@H](CN(C)C)c1ccccc1)C2(C)C` [Example 7, (1S)-2-(dimethylamino)-1-phenylethyl 3-(acetylamino)-6,6-dimethyl-4,6-dihydropyrrolo[3,4-c]pyrazole-5(1H)-carboxylate] were, in that order, 314 nM and 230 nM.
The compound `CC(C)C(=O)Nc1n[nH]c2c1CN(C(=O)O[C@H](CN(C)C)c1ccccc1)C2(C)C` [Example 8, (1S)-2-(dimethylamino)-1-phenylethyl 3-(isobutyrylamino)-6,6-dimethyl-4,6-dihydropyrrolo[3,4-c]pyrazole-5(1H)-carboxylate] gave an inhibition constant Ki in experiment [1] of 124 nM. For the same compound, in experiment [2], the response was half-maximal at 7.4 nM (EC50).
The matching figures for `CN(C)C[C@@H](OC(=O)N1Cc2c(NC(=O)C3CC3)n[nH]c2C1(C)C)c1ccccc1` [Example 9, (1S)-2-(dimethylamino)-1-phenylethyl 3-[(cyclopropylcarbonyl)amino]-6,6-dimethyl-4,6-dihydropyrrolo[3,4-c]pyrazole-5(1H)-carboxylate]: 96.4 nM and 13.3 nM.
The matching figures for `CN(C)C[C@@H](OC(=O)N1Cc2c(NC(=O)C(C)(C)C)n[nH]c2C1(C)C)c1ccccc1` [Example 10, (1S)-2-(dimethylamino)-1-phenylethyl 3-[(2,2-dimethylpropanoyl)amino]-6,6-dimethyl-4,6-dihydropyrrolo[3,4-c]pyrazole-5(1H)-carboxylate]: 75 nM and 7.2 nM.
The matching figures for `CN(C)C[C@@H](OC(=O)N1Cc2c(NC(=O)C3CCC3)n[nH]c2C1(C)C)c1ccccc1` [Example 11, (1S)-2-(dimethylamino)-1-phenylethyl 3-[(cyclobutylcarbonyl)amino]-6,6-dimethyl-4,6-dihydropyrrolo[3,4-c]pyrazole-5(1H)-carboxylate]: 101 nM and 15.7 nM.
Compound `CN(C)C[C@@H](OC(=O)N1Cc2c(NC(=O)C3CCCC3)n[nH]c2C1(C)C)c1ccccc1` [Example 12, (1S)-2-(dimethylamino)-1-phenylethyl 3-[(cyclopentylcarbonyl)amino]-6,6-dimethyl-4,6-dihydropyrrolo[3,4-c]pyrazole-5(1H)-carboxylate] displayed an inhibition constant (Ki) in experiment [1] of 95.5 nM. This compound returned an EC50 in experiment [2] of 3.27 nM.
Compound `CN(C)C[C@@H](OC(=O)N1Cc2c(NC(=O)C3CCCCC3)n[nH]c2C1(C)C)c1ccccc1` [Example 13, (1S)-2-(dimethylamino)-1-phenylethyl 3-[(cyclohexylcarbonyl)amino]-6,6-dimethyl-4,6-dihydropyrrolo[3,4-c]pyrazole-5(1H)-carboxylate] yielded a Ki in experiment [1] of 109 nM. This compound also came in with a concentration giving a half-maximal response (EC50) in experiment [2] of 3.9 nM.
The matching figures for `CN(C)C[C@@H](OC(=O)N1Cc2c(NC(=O)C3CCCO3)n[nH]c2C1(C)C)c1ccccc1` (stereo partly drawn) [Example 15, (1S)-2-(dimethylamino)-1-phenylethyl 6,6-dimethyl-3-[(tetrahydrofuran-2-ylcarbonyl)amino]-4,6-dihydropyrrolo[3,4-c]pyrazole-5(1H)-carboxylate]: 145 nM and 16.1 nM.
The like results for `CN(C)C[C@@H](OC(=O)N1Cc2c(NC(=O)C3CCCCO3)n[nH]c2C1(C)C)c1ccccc1` (stereo partly drawn) [Example 16, (1S)-2-(dimethylamino)-1-phenylethyl 6,6-dimethyl-3-[(tetrahydro-2H-pyran-2-ylcarbonyl)amino]-4,6-dihydropyrrolo[3,4-c]pyrazole-5(1H)-carboxylate] were, in that order, 118 nM and 17.9 nM.
The like results for `CN(C)C[C@@H](OC(=O)N1Cc2c(NC(=O)C3CN(C)CCO3)n[nH]c2C1(C)C)c1ccccc1` (stereo partly drawn) [Example 17, (1S)-2-(dimethylamino)-1-phenylethyl 6,6-dimethyl-3-{[(4-methylmorpholin-2-yl)carbonyl]amino}-4,6-dihydropyrrolo[3,4-c]pyrazole-5(1H)-carboxylate] were, in that order, 259 nM and 110 nM.
For the compound `CN(C)C[C@@H](OC(=O)N1Cc2c(NC(=O)Cc3ccc(F)cc3)n[nH]c2C1(C)C)c1ccccc1` [Example 18, (1S)-2-(dimethylamino)-1-phenylethyl 3-{[(4-fluorophenyl)acetyl]amino}-6,6-dimethyl-4,6-dihydropyrrolo[3,4-c]pyrazole-5(1H)-carboxylate], the Ki in experiment [1] is 23.3 nM. In addition, it took 28.3 nM to reach a half-maximal effect in experiment [2] (EC50).
For the compound `CN(C)C[C@@H](NC(=O)N1Cc2c(NC(=O)C3COc4ccccc4O3)n[nH]c2C1(C)C)c1ccccc1` (stereo partly drawn) [Example 112, 3-(2,3-dihydrobenzo[b][1,4]dioxine-2-carboxamido)-N-((S)-2-(dimethylamino)-1-phenylethyl)-6,6-dimethylpyrrolo[3,4-c]pyrazole-5(1H,4H,6H)-carboxamide], at 1 µM the inhibition in experiment [1] was 66%.
On the same count and under the same terms, the same measure for `Cc1cc(C(=O)Nc2n[nH]c3c2CN(C(=O)NC2CC2c2ccccc2)C3(C)C)n(C)n1` (stereo not drawn) [Example 113, 3-(1,3-dimethyl-1H-pyrazole-5-carboxamido)-6,6-dimethyl-N-[trans-(2-phenylcyclopropyl)]pyrrolo[3,4-c]pyrazole-5(1H,4H,6H)-carboxamide]: 65%; for `CCc1ccc(C(=O)Nc2n[nH]c3c2CN(C(=O)NC2CC2c2ccccc2)C3(C)C)cc1` (stereo not drawn) [Example 114, 3-(4-ethylbenzamido)-6,6-dimethyl-N-[trans-(2-phenylcyclopropyl)]pyrrolo[3,4-c]pyrazole-5(1H,4H,6H)-carboxamide]: 70%.
In experiment [1], `CC1(C)c2[nH]nc(NC(=O)c3ccc(F)cc3)c2CN1C(=O)N[C@H](CN)c1ccccc1` [Example 115, N-[(1S)-2-amino-1-phenylethyl]-3-[(4-fluorobenzoyl)amino]-6,6-dimethyl-4,6-dihydropyrrolo[3,4-c]pyrazole-5(1H)-carboxamide] showed a Ki of 20.8 nM.
On the same count and under the same terms, with `CCC(=O)Nc1n[nH]c2c1CN(C(=O)O[C@H](CN(C)C)c1ccccc1)C2(C)C` [Example 118, (S)-2-(dimethylamino)-1-phenylethyl 6,6-dimethyl-3-propionamidopyrrolo[3,4-c]pyrazole-5(1H,4H,6H)-carboxylate] the figure was 226 nM; with `COC[C@@H](NC(=O)N1Cc2c(NC(=O)c3ccccc3)n[nH]c2C1(C)C)c1ccccc1` [Example 120, (S)-3-benzamido-N-(2-methoxy-1-phenylethyl)-6,6-dimethylpyrrolo[3,4-c]pyrazole-5(1H,4H,6H)-carboxamide], 463 nM.
